The values that follow are results of earlier work, collected in patent US20230309918A1, “TREATING PATHOGENIC INFECTIONS” (priority 2020, published 2023).

Structures are written as SMILES.

The conditions of data set [1]: kidneys.
The test system of the next data set is NF-κB. Conditions: pro-inflammatory signaling pathway involved in Lyme-induced inflammation.
The next data set concerns HSV-1 IE gene expression. The conditions noted are these: diminishes the ability of the virus to launch the lytic infectious cycle.
The conditions of data set [2]: in vivo.
Another data set relates to Borrelia burgdorferi. Conditions: one animal study (Pothineni et al., Sci Rep 2020).

On to `Nc1nc2c(ncn2COCCO)c(=O)[nH]1` [Acyclovir], for which the toxic side effects result in data set [1] is listed as “toxic side effects in the kidneys”.

As to `COc1cc(/C=C/C(=O)CC(=O)/C=C/c2ccc(O)c(OC)c2)ccc1O` [Curcumin], in the data set on NF-κB, the “activation of NF-κB” value is “blocking the activation of NF-κB”. Moreover, the “effect on HSV-1 IE gene expression” value in the data set on HSV-1 IE gene expression was “affect HSV-1 IE gene expression”. Further, the oral bioavailability result in data set [2] is recorded as “poor”.

Regarding `O=c1c(O)c(-c2ccc(O)c(O)c2)oc2cc(O)cc(O)c12` [Quercetin], the solubility in water entry was “poorly soluble”.

As for `CC1(C)S[C@@H]2[C@H](NC(=O)[C@H](NC(=O)N3CCNC3=O)c3ccccc3)C(=O)N2[C@H]1C(=O)O` [azlocillin], the “killing of disease-causing bacteria Borrelia burgdorferi” value with Borrelia burgdorferi is recorded as “completely kills off”.
